Experimental data reported in EP1621631A1, “Method for the production of C6 and/or C9 aldehydes and alcohols in plants by 9/13 divinyl ether synthase” (Georg-August-Universität Göttingen, priority 2004, dated 2006).

Assays:
9/13-DES = test: Determination of the pH optimum of 9/13-DES (endpoint determination by normal-phase and reversed-phase HPLC); assay type: biochemical, Knoblauch; conditions: substrate of recombinant 9/13-DES; pH 5,5 bis 8,6; no pH optimum could be determined
Method: Das pH-Optimum wurde mittels einer Endpunktbestimmung mit Hilfe der Normal-Phasen-HPLC und der Umkehr-Phasen-HPLC ermittelt. Es wurden sowohl 9-HPOD als auch 13-HPOD als Substrate der DES verwendet. Für die Bestimmung des pH-Optimums wurde die Umsetzung bei pH-Werten von 4,5 bis 8,5 in Schritten von 0,5 pH-Einheiten durchgeführt. Für pH 7 wurden zweimal drei Messungen durchgeführt, da für diesen pH-Wert sowohl ein 50 mM Natrium-Phosphatpuffer als auch ein 50 mM Tris/HCl-Puffer verwendet wurde. Für die Umsetzungen wurden zwischen 25 und 80 nmol der Hydroperoxide eingesetzt. Von dem einzelnen Hydroperoxid wurde dabei immer die gleiche Menge für jede Umsetzung eingesetzt. Parallel zu den Proben für den pH-Optimumstest wurden drei Ansätze mit Zelllysat des leeren Vektors in E. coli mit 13-HPOD inkubiert. Die Leervektorkontrolle zeigte keine Divinylether-Bildung, es konnte nur das Hydroperoxid nachgewiesen werden.

[1] = tested on: 9/13-Divinylethersynthase aus Knoblauch; test: Photometric determination of the substrate specificity of 9/13-DES; assay type: biochemical; conditions: purified 9/13-DES; 100 µM hydroperoxide; room temperature; decrease of extinction at 234 or 236 nm over one minute
Method: Für die Bestimmung der Substratspezifität wurde die 9/13-Divinylethersynthase aus Knoblauch aus einer Expressionskultur aufgereinigt. Dazu wurde zunächst eine 400 ml Expressionskultur unter den schon vorher beschriebenen Bedingungen angeimpft und angezogen. Die Zellen wurden nach zweitägiger Inkubation durch 15-minütige Zentrifugation mit 4000 g bei 4°C sedimentiert. Das Sediment wurde in 20 ml 50 mM Na-Phosphat, pH 8, resuspendiert und mit Ultraschall (Sonopuls GM 70, Bandelin, Berlin) für 5-Mal eine Minute bei 50 % Leistung und 50 % Impuls aufgeschlossen. Die Zelltrümmer wurden 15 min bei 4000 x g sedimentiert und aus dem Überstand wurden durch eine weitere Zentrifugation (1 h bei 100000 x g) die Zellmembranen sedimentiert. Das Membransediment wurde für 1 h in 50 mM Na-Phosphat, pH 8, mit 1M NaCl und 0,1 % (v/v) TritonX-100 inkubiert, um die Membranproteine zu solubilisieren. Anschließend wurde erneut 1 h bei 100000 x g zentrifugiert. Der Überstand wurde mit Talon Metal Affinity Resin (Clontech, Palo Alto, USA) (200 µl Bettvolumen) über Nacht bei 4 °C geschüttelt. Danach wurde das Material auf eine Leersäule (T.J. Baker, Phillipsburg, N.J., USA) gegeben. Die Elution erfolgte mit 3 ml 50 mM Tris/HCl pH 6,3, 10 % Glycerin, 0,1 % Tween 20, 0,5 M NaCl und 0,1 M EDTA. Durch eine PD-10 Säule (Amersham pharmacia biotech, UK) wurde das Protein in 50 mM Na-Phosphat-Puffer pH 8 umgepuffert.
Das so aufgereinigte Protein wurde für die Tests im Photometer eingesetzt. Die Messungen erfolgten bei Raumtemperatur und es wurde immer bei der Wellenlänge des eingesetzten Hydroperoxids (234 bzw. 236 nm) bei einer Konzentration 100 µM für eine Minute die Abnahme der Extinktion aufgezeichnet. Die Messungen erfolgten in einer 100 µl Quarzküvette. Die Reaktion wurde durch die Zugaben von 1 µl der Proteinlösung gestartet.

| Compound | Umsetzung über den pH-Bereich (9/13-DES) | Substratspezifität (Umsetzung durch 9/13-DES) [1] |
| --- | --- | --- |
| CCCCC/C=C\C=C\[C@H](CCCCCCCC(=O)O)OO [9-HPOD, (9S, 10E, 12Z)-9-Hydroperoxy-10,12-Octadecadiensäure] | gleich gut umgesetzt | in etwas geringerem Maße |
| CC/C=C\C/C=C\C=C\[C@H](CCCCCCCC(=O)O)OO [9-HPOT, (9S, 10E, 12Z, 15Z)-9-Hydroperoxy-10,12,15-Octadecatriensäure] |  | wesentlich weniger stark umgesetzt |
| CCCCC[C@@H](/C=C/C=C\CCCCCCCC(=O)O)OO [13-HPOD, (13S, 9Z, 11E)-13-Hydroperoxy-9,11-Octadecadiensäure] |  | bevorzugt |
| CC/C=C\C[C@@H](/C=C/C=C\CCCCCCCC(=O)O)OO [13-HPOT, (9Z, 11E, 13S, 15Z)-13-Hydroperoxy-9,11,15-Octadecatriensäure] |  | wesentlich weniger stark umgesetzt |
